# Test results as given in patent US10106833B2, “Methods and compounds for identifying glycosyltransferase inhibitors” (priority 2012, dated 2018).
# Experiments:
# [1] = biological target: T1, E. coli PBP1b (Escherichia coli, UniProt P02919); test: Displacement of probe compound S16 (CMG121) from E. coli PBP1b, decrease in fluorescence polarization on addition of test compound; format: binding
# Experimental: (§1) Solution containing 10 mM TRIS (pH=8.0), 100 mM NaCl, 0.3% DMSO, 75 nM S16, and bacterial glycosyltransferase (E. coli PBP1b c=2.2 uM; E. faecalis PBP2a c=5.1 uM; S. aureus SgtB c=2.1 uM) were allowed to equilibrate for 30 min at 0° C. and then serially diluted (1/1 dilutions) into buffer containing 10 mM TRIS (pH=8.0), 100 mM NaCl, 0.3% DMSO, and 75 nM S16. After equilibration at 0° C. for 30 min the 20 μL of the solutions were transferred to a black 384 well plate (Corning NBS Low Volume) and fluorescence polarization (FP, ex: 480 nm; em: 535 nm) was measured using a Perkin Elmer Envision microplate reader. Each series was performed in duplicate and the data was plotted FP vs. concentration of enzyme. For determination of the KD, the average FP values were converted to fluorescence anisotropy and fitted to the standard equation describing an equilibrium L+E<->LE (L=ligand; E=enzyme; LE=ligand enzyme complex) using GraphPad Prism 5.0 (GraphPad Software, Inc.; La Jolla, Calif., USA). The KD values for probe S16 are: E. coli PBP1b: 0.15; E. faecalis PBP2a: 0.38; […]
# (§2) For determination of the Ki, the average FP values were first converted to fluorescence anisotropy.
# [2] = biological target: E. faecalis PBP2a (Enterococcus faecalis, UniProt Q837Z4); test: Displacement of probe compound S16 (CMG121) from E. faecalis PBP2a, decrease in fluorescence polarization on addition of test compound; format: binding; conditions: read-out: E. faecalis PBP2a Kd; FIG. 2; FP displacement; 75 nM probe S16, 0.38-0.46 uM PBP2a, 10 mM TRIS pH 8.0, 100 mM NaCl, 0° C. 30 min
# Experimental: as §1, §2
# [3] = biological target: S. aureus SgtB (Staphylococcus aureus, UniProt Q99T05); test: Displacement of probe compound S16 (CMG121) from S. aureus SgtB, decrease in fluorescence polarization on addition of test compound; format: binding; conditions: read-out: S. aureus SgtB Kd; FIG. 2; FP displacement; 75 nM probe S16, 0.2-0.25 uM SgtB, 10 mM TRIS pH 8.0, 100 mM NaCl, 0° C. 30 min
# Experimental: Solution containing 10 mM TRIS (pH=8.0), 100 mM NaCl, 0.3% DMSO, 75 nM S16, and bacterial glycosyltransferase (E. coli PBP1b c=2.2 uM; E. faecalis PBP2a c=5.1 uM; S. aureus SgtB c=2.1 uM) were allowed to equilibrate for 30 min at 0° C. and then serially diluted (1/1 dilutions) into buffer containing 10 mM TRIS (pH=8.0), 100 mM NaCl, 0.3% DMSO, and 75 nM S16. After equilibration at 0° C. for 30 min the 20 μL of the solutions were transferred to a black 384 well plate (Corning NBS Low Volume) and fluorescence polarization (FP, ex: 480 nm; em: 535 nm) was measured using a Perkin Elmer Envision microplate reader. Each series was performed in duplicate and the data was plotted FP vs. concentration of enzyme. For determination of the KD, the average FP values were converted to fluorescence anisotropy and fitted to the standard equation describing an equilibrium L+E<->LE (L=ligand; E=enzyme; LE=ligand enzyme complex) using GraphPad Prism 5.0 (GraphPad Software, Inc.; La Jolla, Calif., USA). The KD values for probe S16 are: E. coli PBP1b: 0.15; E. faecalis PBP2a: 0.38;
# S. aureus SgtB: 0.18. Probe CMG121 (75 nM) is displaced from S. aureus SgtB (0.2 μM) by addition of either moenomycin or the weaker PGT inhibitor disaccharide S15, as evidenced by reduction of FP. […]
# as §2
# [4] = test system: bacterial glycosyltransferase (E. coli PBP1b; E. faecalis PBP2a; S. aureus SgtB); test: Assay validation: displacement of probe compound from enzyme (fluorescence polarization); format: binding; conditions: 75 nM probe S16; test compound up to ca. 200 uM
# Experimental: (§3) To equilibrated solutions containing 10 mM TRIS (pH=8.0), 100 mM NaCl, 75 nM S16, and bacterial glycosyltransferase (E. coli PBP1b c=0.1-0.15 uM; E. faecalis PBP2a c=0.38-0.46 uM; S. aureus SgtB c=0.2-0.25 uM) was added the test compound in DMSO or DMSO/H2O solutions (stock solutions were typically 2 mM) to obtain a final concentration of test compound of ca. 200 uM. These solutions were serially diluted (1/1 dilutions) into buffer containing 10 mM TRIS (pH=8.0), 100 mM NaCl, 75 nM Probe CMG121, and bacterial glycosyl transferase (E. coli PBP1b c=0.1-0.15 uM; E. faecalis PBP2a c=0.38-0.46 uM; S. aureus SgtB c=0.2-0.25 uM). After equilibration at 0° C. for 30 min the 20 μL of the solutions were transferred to a black 384 well plate (Corning NBS Low Volume) and fluorescence polarization (FP, ex: 480 nm; em: 535 nm) was measured using a Perkin Elmer Envision microplate reader. Each series was performed in duplicate and the data was plotted FP vs. concentration of test compound.
# [5] = biological target: S. aureus SgtB; test: Fluorescence polarization probe competition (Ki); format: binding; conditions: probe CMG121 75 nM, S. aureus SgtB 0.2 μM; read-out: Ki (displacement of probe CMG121)
# Experimental: as §3, with “Each series was performed in duplicate and the data was plotted FP vs. concentration of test compound.” left out
# A black 384 well plate (Corning NBS Low Volume No. 3820) was filled (10 μL per well) with an equilibrated solution containing 10 mM TRIS (pH=8.0), 100 mM NaCl, 75 nM disaccharide S15, and 1.0-1.5 μM S. aureus SgtB (depending on protein batch). […] The plate was incubated at 4° C. for 30 min and read with an Perkin Elmer EnVision microplate reader as described above. […]
# For determination of the Ki, the average FP values were first converted to fluorescence anisotropy. […]
# [6] = biological target: T1, E. coli PBP1b; test: In vitro PGT inhibition, PG formation from 14C-lipid II; format: biochemical; conditions: E. coli PBP1b 50 nM, lipid II 4 μM
# Experimental: (§4) A solutions of S. aureus SgtB (50 nM) in 12.5 mM HEPES (pH=7.5), 2 mM MnCl2, and 250 μM tween-80 (8 μL) were incubated with DMSO solutions containing the inhibitor of interest in different concentrations (1 μL) for 20 min. Then ^14C-labelled lipid II (1 μL, 40 μM, ^14C/^12C 1/3) was added and the polymerization reaction was allowed to proceed for 25 min at room temperature. The reaction was quenched with 10 μL of a solution of moenomycin (1 μM) in 10% triton-X reduced and the remaining lipid II was separated from peptidoglycan (PG) using paper strip chromatography (isobutyric acid/1M NH4OH 5/3). Using a scintillation counter the ratio of radioactivity in PG to total radioactivity was determined and plotted vs. inhibitor concentration. IC50s were determined using the curve fitting program GraphPad Prism 5.0 (GraphPad Software, Inc.; La Jolla, Calif., USA).
# Solutions of the PGT (50 nM) in 50 mM HEPES (pH=7.5), 10 mM CaCl2, and […] PenG (8 μL) were incubated with DMSO solutions containing the inhibitor of interest in different concentrations (1 μL) for 20 min. Then ^14C-labelled lipid II (1 μL, 40 μM, ^14C/^12C 1/3) was added and the polymerization reaction was allowed to proceed for 25 min at room temperature. The reaction was quenched and processed as described above.
# [7] = biological target: T2, S. aureus SgtB (Staphylococcus aureus, UniProt Q93Q23); test: as above; format: biochemical; conditions: S. aureus SgtB 50 nM, lipid II 4 μM
# T2 sequence (Q93Q23 1-269): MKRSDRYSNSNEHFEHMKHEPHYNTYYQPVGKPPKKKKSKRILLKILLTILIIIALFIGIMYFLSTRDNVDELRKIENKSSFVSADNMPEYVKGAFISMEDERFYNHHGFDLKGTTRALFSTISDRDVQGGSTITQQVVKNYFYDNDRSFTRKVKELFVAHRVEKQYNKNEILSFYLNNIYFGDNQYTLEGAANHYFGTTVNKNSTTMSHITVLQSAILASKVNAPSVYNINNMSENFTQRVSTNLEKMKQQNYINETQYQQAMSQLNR
# Experimental: as §4
# [8] = test system: Gram-positive organisms; conditions: against Gram-positive organisms; cited from earlier work
# T1 sequence (P02919 whole entry): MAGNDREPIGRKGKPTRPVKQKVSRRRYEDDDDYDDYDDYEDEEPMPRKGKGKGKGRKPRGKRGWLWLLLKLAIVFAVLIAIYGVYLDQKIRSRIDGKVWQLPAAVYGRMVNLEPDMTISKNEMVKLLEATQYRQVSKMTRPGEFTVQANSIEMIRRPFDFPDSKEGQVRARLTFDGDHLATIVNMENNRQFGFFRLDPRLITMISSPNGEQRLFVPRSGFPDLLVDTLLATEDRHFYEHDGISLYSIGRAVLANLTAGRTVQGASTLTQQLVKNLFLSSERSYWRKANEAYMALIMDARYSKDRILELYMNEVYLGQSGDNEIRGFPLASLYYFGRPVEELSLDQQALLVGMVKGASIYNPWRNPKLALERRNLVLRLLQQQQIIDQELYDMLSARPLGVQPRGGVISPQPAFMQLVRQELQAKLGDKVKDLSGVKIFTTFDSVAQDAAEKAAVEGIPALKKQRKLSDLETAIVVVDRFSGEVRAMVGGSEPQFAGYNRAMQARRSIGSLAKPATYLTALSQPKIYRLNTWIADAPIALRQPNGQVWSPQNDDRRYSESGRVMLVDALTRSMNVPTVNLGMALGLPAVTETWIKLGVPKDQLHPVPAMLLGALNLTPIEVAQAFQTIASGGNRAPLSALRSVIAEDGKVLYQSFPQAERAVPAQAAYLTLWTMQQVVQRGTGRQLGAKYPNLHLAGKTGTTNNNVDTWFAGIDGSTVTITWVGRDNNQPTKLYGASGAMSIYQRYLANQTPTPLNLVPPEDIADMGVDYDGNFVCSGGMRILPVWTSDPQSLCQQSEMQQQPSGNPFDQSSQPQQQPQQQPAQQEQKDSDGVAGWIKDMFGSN
# Chain of E. faecalis PBP2a (Q837Z4 entry or part of it): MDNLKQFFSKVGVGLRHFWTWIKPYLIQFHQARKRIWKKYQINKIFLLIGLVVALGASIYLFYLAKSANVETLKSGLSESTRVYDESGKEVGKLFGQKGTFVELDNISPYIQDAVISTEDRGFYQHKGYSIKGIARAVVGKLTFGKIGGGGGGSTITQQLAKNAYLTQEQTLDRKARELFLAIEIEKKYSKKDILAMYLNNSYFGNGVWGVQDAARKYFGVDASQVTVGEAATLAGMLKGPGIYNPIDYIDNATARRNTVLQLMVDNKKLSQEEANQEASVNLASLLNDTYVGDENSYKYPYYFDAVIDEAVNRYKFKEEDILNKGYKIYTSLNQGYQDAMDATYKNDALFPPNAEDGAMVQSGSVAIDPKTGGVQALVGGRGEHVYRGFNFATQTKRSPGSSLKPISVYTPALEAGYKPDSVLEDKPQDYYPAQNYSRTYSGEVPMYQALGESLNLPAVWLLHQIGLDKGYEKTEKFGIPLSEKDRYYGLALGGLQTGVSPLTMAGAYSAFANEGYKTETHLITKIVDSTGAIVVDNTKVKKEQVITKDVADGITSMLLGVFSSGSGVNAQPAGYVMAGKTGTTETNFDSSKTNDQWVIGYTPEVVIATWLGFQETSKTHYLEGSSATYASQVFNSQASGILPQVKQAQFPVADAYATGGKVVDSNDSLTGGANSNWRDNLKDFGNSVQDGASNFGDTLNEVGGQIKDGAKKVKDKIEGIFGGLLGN
compound,measurement,setting,value
C=C(C/C=C(\C)CCC=C(C)C)CCC(C)(C)/C=C/CC/C(C)=C\CO[C@H](COP(=O)(O)O[C@H]1O[C@H](C(N)=O)[C@@](C)(O)[C@H](OC(N)=O)[C@H]1O[C@@H]1O[C@H](CO[C@@H]2O[C@H](CO)[C@@H](O)[C@H](O)[C@H]2O)[C@@H](O[C@@H]2O[C@H](C)[C@@H](O[C@@H]3O[C@H](C(=O)NC4=C(O)CCC4=O)[C@H](O)[C@H](O)[C@H]3O)[C@H](O)[C@H]2NC(C)=O)[C@H](O)[C@H]1NC(C)=O)C(=O)O [Moenomycin A],Kd,"[1]; read-out: E. coli PBP1b Kd, FIG. 2, FP displacement, 75 nM probe S16, 0.1-0.15 uM PBP1b, 10 mM TRIS pH 8.0, 100 mM NaCl, 0° C. 30 min",3900 nM
same,Kd,[2],950 nM
same,Kd,[3],1100 nM
CCCCCCCCCCCCO[C@@H]1O[C@H](CO)[C@@H](O[C@H]2O[C@H](CO)[C@@H](O)[C@H](O)[C@H]2O)[C@H](O)[C@H]1O [dodecyl-β-D-maltoside],Displacement of the probe compound (change in fluorescence polarization) on addition of test compound,[4],does not displace
C=C(C/C=C(\C)CCC=C(C)C)CCC(C)(C)/C=C/CC/C(C)=C\CO[C@H](COP(=O)(O)O[C@H]1O[C@H](C(N)=O)[C@@](C)(O)[C@H](OC(N)=O)[C@H]1O[C@@H]1O[C@H](CO[C@@H]2O[C@H](CO)[C@@H](O)[C@H](O)[C@H]2O)[C@@H](O[C@@H]2O[C@H](C)[C@@H](O[C@@H]3O[C@H](C(=O)NC4=C(O)CCC4=O)[C@H](O)[C@H](O)[C@H]3O)[C@H](O)[C@H]2NC(C)=O)[C@H](O)[C@H]1NC(C)=O)C(=O)O [moenomycin A],Ki,[5],640 nM
same,IC50,[6],12 nM
same,IC50,[7],6 nM
same,Displacement of the probe compound (change in fluorescence polarization) on addition of test compound,[4],decrease in fluorescence polarization
same,Potency relative to vancomycin,[8],10-1000 times
"CC(=O)N[C@H]1[C@H](O[C@H]2[C@H](O)[C@@H](NC(C)=O)[C@H](O[C@H]3[C@@H](OP(=O)(O)OC[C@@H](OC/C=C(/C)CCC=C(C)C)C(=O)O)O[C@H](C(N)=O)[C@@](C)(O)[C@@H]3OC(N)=O)O[C@@H]2CO[C@@H]2O[C@H](CO)[C@@H](O)[C@H](O)[C@H]2O)O[C@H](C)[C@@H](O[C@@H]2O[C@H](C(=O)NC3=C(O)CCC3=O)[C@H](O)[C@H](O)[C@H]2O)[C@@H]1O [neryl-Moenomycin A (n-MmA), neryl-moenomycin A]",IC50,"[1]; FIG. 6, printed on the figure showing FP displacement of the probe by neryl-moenomycin A",200 nM
CC(=O)N[C@H]1[C@H](O[C@H]2[C@H](O)[C@@H](NC(C)=O)[C@H](O[C@H]3[C@@H](OP(=O)(O)OC[C@@H](OC/C=C(/C)CCC=C(C)C)C(=O)O)O[C@H](C(N)=O)[C@@](C)(O)[C@@H]3OC(N)=O)O[C@@H]2CO[C@@H]2O[C@H](CO)[C@@H](O)[C@H](O)[C@H]2O)O[C@H](C)[C@@H](O[C@@H]2O[C@H](C(=O)NC3=C(O)CCC3=O)[C@H](O)[C@H](O)[C@H]2O)[C@@H]1O [neryl-moenomycin A],Displacement of the probe compound (change in fluorescence polarization) on addition of test compound,[4],decrease in fluorescence polarization
CCCCCCCCCCCCCC(=O)OC[C@H](COP(=O)(O)OCC(O)COP(=O)(O)OC[C@@H](COC(=O)CCCCCCCCCCCCC)OC(=O)CCCCCCCCCCCCC)OC(=O)CCCCCCCCCCCCC (stereo partly drawn) [tetramystryl cardiolipin],Displacement of the probe compound (change in fluorescence polarization) on addition of test compound,[4],partial displacement
ZE-farnesyl-moenomycin A,Displacement of the probe compound (change in fluorescence polarization) on addition of test compound,[4],decrease in fluorescence polarization
nC12-moenomycin A,Displacement of the probe compound (change in fluorescence polarization) on addition of test compound,[4],decrease in fluorescence polarization
nC20-moenomycin A,Displacement of the probe compound (change in fluorescence polarization) on addition of test compound,[4],decrease in fluorescence polarization
